One test addresses T1, SaHU (Staphylococcus aureus, UniProt Q99U17).
T1 sequence (Q99U17 1-90): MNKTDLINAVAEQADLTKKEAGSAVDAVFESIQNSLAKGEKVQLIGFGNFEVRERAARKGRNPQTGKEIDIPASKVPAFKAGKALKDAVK
Briefly: microscale thermophoresis. The class given is binding.

The target in test [1] is T2, HU protein of M. tuberculosis (Mycobacterium tuberculosis, UniProt P9WMK7).
T2 construct: gene hupB

Test [2] deals with T3, HU protein of S. pyogenes (Streptococcus pyogenes, UniProt Q5XB35).
T3 construct: gene hup
The test can be described thus: WaterLOGSY NMR. The class given is binding. The conditions noted are these: 10 µM HU, 400 µM compound; 50 mM NaCl, 20 mM Tris, pH 7.4, 5% DMSO, 10% D2O, 298 K.

Broadly, the Kd is the equilibrium constant for the complex coming apart. A higher Kd goes with a looser complex.

T2 sequence (P9WMK7 2-216): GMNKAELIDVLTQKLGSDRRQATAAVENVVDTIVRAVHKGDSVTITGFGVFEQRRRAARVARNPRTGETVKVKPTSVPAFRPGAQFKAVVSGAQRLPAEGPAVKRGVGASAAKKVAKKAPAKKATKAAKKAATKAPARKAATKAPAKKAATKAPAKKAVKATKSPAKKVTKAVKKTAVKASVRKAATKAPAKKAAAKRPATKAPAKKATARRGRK
T3 sequence (Q5XB35 whole entry): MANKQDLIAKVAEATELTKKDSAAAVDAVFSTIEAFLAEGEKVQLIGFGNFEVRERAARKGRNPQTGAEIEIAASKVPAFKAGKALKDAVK

In turn, `O=C(/C=C/c1ccccc1)NO` [CHA] came in with a Kd on SaHU of 5.77 ± 0.93 µM.

`O=C(/C=C/c1cccc(S(=O)(=O)Nc2ccccc2)c1)NO` [Belinostat] gave a dissociation constant Kd at SaHU of 4.24 ± 0.24 µM. Further, the “WaterLOGSY NMR” value was “including A. baumannii, S. pneumoniae, B. subtilis, M. tuberculosis and S. pyogenes” in test [1]; “including A. baumannii, S. pneumoniae, B. subtilis, M. tuberculosis and S. pyogenes” in test [2].

(Values after article PMC12955902 (Advanced Science, 2025).)
